Test results reported in US20080311233A1, “Naturally Occurring Phenolic Substances Useful as Pesticides” (priority 2004, published 2008).

What was measured:
[1] = Solubility / miscibility in water and formulating agents; format: physicochemical
[2] = cited from earlier work

For COc1cc(C=O)ccc1O [Vanillin], the “solubility in polyethylene glycol” value ([1]; polyethylene glycol) is listed as “considerably soluble”, the “solubility in tetra ethyl ortho silicate” value ([1]; tetra ethyl ortho silicate) is listed as “considerably soluble” and the solubility in water ([2]; according to the Merck index) is listed as 1 gram in 100 ml water. For the same compound, the solubility in alcohol ([2]; compared with water, Merck index) was “more soluble”.
